Values joined by “and” are separate entries in the source; they are usually repeats but may differ in a detail not shown here. Equal values may be shown once.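 Five compound concentrations were applied to cells in 96-well plates for 48 hours; endpoints were derived by simple linear interpolation of the resulting dose-response curve. The concentration for 50% growth inhibition is given as GI50. TGI denotes the concentration required for complete inhibition of growth.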
How the values were obtained:
Assay in all cases: NCI tumour cell line growth inhibition, 48 h
[1] = test system: XF 498 CNS
[2] = test system: KM20L2 colon
[3] = test system: HOP-18 NSCLC
[4] = test system: M19-MEL melanoma
[5] = test system: DLD-1 colon
[6] = test system: LXFL 529 NSCLC
[7] = test system: RXF-631 renal
[8] = test system: DMS 273 small cell lung
[9] = test system: DMS 114 small cell lung
[10] = test system: P388/ADR leukemia
[11] = test system: P388 leukemia
[12] = test system: SN12K1 renal

| Structure (SMILES) | TGI [1] [µM] | TGI [2] | TGI [3] [µM] | TGI [4] | TGI [5] | TGI [6] | TGI [7] | TGI [8] | TGI [9] | TGI [10] [µM] | TGI [11] [nM] | TGI [12] [µM] | GI50 [8] [nM] | GI50 [4] [µM] | GI50 [5] [µM] | GI50 [6] [µM] | GI50 [7] [nM] | GI50 [9] [nM] |
| --- | --- | --- | --- | --- | --- | --- | --- | --- | --- | --- | --- | --- | --- | --- | --- | --- | --- | --- |
| C=CCOCCCC(=O)C(=[N+]=[N-])C(=O)OC | > 100 | > 100 µM | > 100 | > 100 µM | > 100 µM | > 100 µM | > 100 µM |  |  |  |  |  |  |  |  |  |  |  |
| O=C1CCC(NC(=O)Cc2ccc(O)cc2)C(=O)N1 (stereo not given) | > 2500 | > 2500 µM | > 2500 | > 2500 µM |  | > 2500 µM | > 2500 µM | > 2500 µM | > 2500 µM |  |  |  |  |  |  |  |  |  |
| CN(C)CCNc1c([N+](=O)[O-])cc2c3c(cccc13)C(=O)N(CCN(C)C)C2=O | 3.92 | 5.87 µM | 4.6 | 3.28 µM | 6.02 µM |  |  | 2.95 µM | 3.1 µM | 4.9 | 2620 |  |  |  |  |  |  |  |
| CCN(CC)/C(=C\Cl)Nc1ccccn1 | > 100 | > 100 µM | > 100 | > 100 µM | > 100 µM | > 100 µM | > 100 µM | > 100 µM | > 100 µM |  |  |  |  |  |  |  |  |  |
| S=C(NCCCCCCNC(=S)Nc1c2ccccc2nc2ccccc12)Nc1c2ccccc2nc2ccccc12 | > 100 | > 100 µM | > 100 | > 100 µM | > 100 µM |  |  | > 100 µM |  | > 100 | > 100000 | > 25.1 |  |  |  |  |  |  |
| Cc1c(N)nc([C@H](CC(N)=O)NC[C@H](N)C(N)=O)nc1C(=O)N[C@H](C(=O)N[C@H](C)[C@@H](O)[C@H](C)C(=O)N[C@H](C(=O)NCCc1nc(-c2nc(C(=O)NCCC[S+](C)C)cs2)cs1)[C@@H](C)O)C(OC1OC(CO)C(O)C(O)C1OC1OC(CO)C(O)C(OC(N)=O)C1O)c1cnc[nH]1 (stereo not given in full) | 13.5 | 24.3 µM and 29 µM | 13.3 | 25 µM and 29 µM | 23.7 µM and > 29 µM | 23.6 µM and > 29 µM | 17.7 µM and 10.4 µM | 7.82 µM and 29 µM | 5.68 µM and 29 µM | 20 | 18500 | 21 | 70.9 | 12.9 | > 29 | > 29 | 372 | 1290 |
| Cc1c2c(cc3c1[nH]c1ccccc13)C(c1ccc(F)cc1)=NCC2 | 5.67 | 5.52 µM | 14.5 | 5.44 µM | 6.45 µM |  |  | 2.29 µM | 2.41 µM | 5 | 1970 | 2.16 |  |  |  |  |  |  |

Reference: PubChem BioAssay (NCI)
